Assays:
[1] = system: Varroa destructor; test: 1st test in hives: degree of infestation with Varroa; assay type: in vivo; details: for Degree of infestation with Varroa / Degree of infestation with Varroa, change versus batch I: overall dose 2 mg per colony; for Degree of infestation with Varroa: 100 = 1.78 mite/10 g of bees; for Degree of infestation with Varroa, change versus batch I: value in brackets
Protocol: Biological field tests were performed on families of European domestic bees of the species Apis mellifera […] experimental apiary located in the […] forestry district (Republic of Moldova). Feeding with the complex of the invention took place in spring. The biological tests were monitored up to the month of September. To administer the compounds to the bees, a very small amount of bioactive substance was added to two types of sugary feeding products for bees: candy in the form of a paste (70% sucrose, 30% honey) or syrup (50% sucrose, 50% water). The bees were fed by adding the candy/syrup to the feeder located in the inner upper part of the hive. The volume of syrup was adjusted based on the number of bee frames at the initial time, more precisely 200 g of candy per frame and 100 mL of syrup per frame, that is 2 kg of candy and 1 L of syrup per hive of 10 frames. For the first feeding step, candy in the form of a paste was only given once. […] From the start of the test to the end (after the second harvest), all the bees were monitored for several key morpho-producing parameters that reflect the development level of the colony and the vital aspects of the bees. The parameters studied are: the prolificity of the queen (fertility), the power of the colonies, the production of honey and the production of wax. These parameters were monitored in line with the zootechnical standards concerning the assessment of bee families, breeding and certification of beekeeping parental material approved by government decision No. 306 dated Apr. 28, 2011 of the Republic of Moldova. The assessment consists in counting the number of Varroa on a sample of adult bees. The value from this count is used as an index for monitoring the level of parasitism in the colony. The method uses icing sugar and a “shaker” jar made of transparent glass with a capacity of 1 kg. The cover is a mesh made of galvanized steel of the type placed at the bottom of the hive, with a mesh size of 3 mm. The mesh allows Varroa mites to pass through but retains the honey bees. The method is implemented according to the following steps: 40 to 50 g of honey bees are collected in the jar (approximately 400 bees), 100 g of icing sugar is added and the shaker jar is rolled for 1 minute so as to cover every bee in icing sugar. The icing sugar then makes it possible to separate the Varroa mites from the body of the host bee so that they drop off. Leave to rest for 1 minute: bees have a delousing behavior, which helps the Varroa mites to drop off. The icing sugar is sieved over a sieve which makes it possible to retain the Varroa mites and then count them. The result is given as the number of mites per 10 g of bees (approximately 100 bees) and can be expressed as a %. This rate is indicative of the Varroa burden in the colony. […] A moderate rate is between 2 and 5 and, in this case, treatment of the colonies must be scheduled. Finally, a rate greater than 5, requires emergency treatment of the colony. Our tests give a result of around 2% for worker bees. The molecules tested, their concentration in solution and their annual overall doses are listed below: • 1. […] The concentration of the complex in the syrup: 1.5×10^-7 mol/L. Overall and annual product dose: 2 mg of complex per colony • 2. […] The concentration of the complex in syrup: 3.0×10^-7 mol/L. Overall and annual product dose: 2 mg of complex per colony • 3. […] Overall and annual product dose: 2 mg of complex per colony • 4. LiCH3COO·H2O as a positive control, abbreviated as Li-Ac • The feeding is carried out with 2000 g of candy containing 0.8 mg of positive control product, then 6 to 7 L of syrup containing 0.2 mg/L of positive control product. The concentration of the product in syrup: 2.36×10^-6 mol/L that is 1.67×10^-5 g/L. Overall and annual product dose: 2 mg of product per colony

[2] = system: Varroa destructor; test: 2nd test in the hives: degree of infestation of bees with Varroa; assay type: in vivo; details: for Degree of infestation with Varroa: 100 = 2.32 mite/10 g of bees; for Degree of infestation with Varroa, change versus batch I: value in brackets
Text: The assessment consists in counting the number of Varroa on a sample of adult bees. The value from this count is used as an index for monitoring the level of parasitism in the colony. The method uses icing sugar and a “shaker” jar made of transparent glass with a capacity of 1 kg. The cover is a mesh made of galvanized steel of the type placed at the bottom of the hive, with a mesh size of 3 mm. The mesh allows Varroa mites to pass through but retains the honey bees. The method is implemented according to the following steps: 40 to 50 g of honey bees are collected in the jar (approximately 400 bees), 100 g of icing sugar is added and the shaker jar is rolled for 1 minute so as to cover every bee in icing sugar. The icing sugar then makes it possible to separate the Varroa mites from the body of the host bee so that they drop off. Leave to rest for 1 minute: bees have a delousing behavior, which helps the Varroa mites to drop off. The icing sugar is sieved over a sieve which makes it possible to retain the Varroa mites and then count them. The result is given as the number of mites per 10 g of bees (approximately 100 bees) and can be expressed as a %. This rate is indicative of the Varroa burden in the colony. […] A moderate rate is between 2 and 5 and, in this case, treatment of the colonies must be scheduled. Finally, a rate greater than 5, requires emergency treatment of the colony. Our tests give a result of around 2% for worker bees. The 2nd test was performed in the same apiary the following year. Feeding with the complex of the invention took place in spring. The biological tests were monitored up to the month of September. The molecules tested, their concentration in solution and their annual overall doses are listed below: • 1. […] The concentration of the complex in syrup: 1.5×10^-7 mol/L. Overall product dose: 2 mg/colony • 2. […] Overall complex dose: 6 mg/colony • 4. LiCH3COO·H2O for comparison, abbreviated as Li-Ac • The feeding is carried out with 2000 g of candy containing 0.8 mg of product then 6 to 7 L of syrup containing 0.2 mg/L of product. The concentration of product in the syrup: 2.36×10^-6 mol/L that is 1.67×10^-5 g/L. Overall product dose: 2 mg/colony

Question: How did the “Degree of infestation with Varroa” value [1] turn out when `O.O.O.O.O.O=C([O-])CN(CCN(CC(=O)[O-])CC(=O)[O-])CC(=O)[O-].[Na+].[Na+].[O]=[Mo+]12[O][Mo+]1(=[O])[O]2` [Na—Mo2O4-EDTA, Na2[Mo2O4 (EDTA)]·5H2O] was run?
Answer: 86.5 % relative to batch I

Question: And the “Degree of infestation with Varroa, change versus batch I” value (“Degree … change versus batch I” below) [1]?
Answer: −13.5%

Question: With `O=C([O-])CN(CCN(CC(=O)[O-])CC(=O)[O-])CC(=O)[O-].[O]=[Mo+]12[O][Mo+]1(=[O])[O]2.c1ccc([P+](c2ccccc2)(c2ccccc2)c2ccccc2)cc1.c1ccc([P+](c2ccccc2)(c2ccccc2)c2ccccc2)cc1` [PPh4—Mo2O4-EDTA, (PPh4)2[Mo2O4 (EDTA)]·2.5H2O] as the molecule, how does the “Degree of infestation with Varroa” value ([2]; overall dose 2 mg/hive) read?
Answer: 60.8 % relative to batch I

Question: And the “Degree … change versus batch I” value ([2]; overall dose 2 mg/hive)?
Answer: −39.2%

Question: What about the “Degree of infestation with Varroa” value [1] of the same molecule?
Answer: 78.7 % relative to batch I

Question: And the “Degree … change versus batch I” value [1]?
Answer: −21.3%

Question: `CC(=O)[O-].[Li+]` [Li—Ac, LiCH3COO·H2O, reference compound] was tested. Which “Degree of infestation with Varroa” value ([2]; overall dose 2 mg/hive) did it give?
Answer: 69.0 % relative to batch I

Question: And the “Degree … change versus batch I” value ([2]; overall dose 2 mg/hive)?
Answer: −31%

Question: And the “Degree of infestation with Varroa” value [1]?
Answer: 58.4 % relative to batch I

Question: What about the “Degree … change versus batch I” value [1] of the same molecule?
Answer: −41.6%

Question: What does the source list for `O.O.O.O.O.O.O=C([O-])CN(CCN(CC(=O)[O-])CC(=O)[O-])CC(=O)[O-].[Li+].[Li+].[O]=[Mo+]12[O][Mo+]1(=[O])[O]2` [Li—Mo2O4-EDTA, Li2[Mo2O4 (EDTA)]·6H2O]?
Answer: Degree of infestation with Varroa ([2]; overall dose 2 mg/hive): 52.6 % relative to batch I; Degree of infestation with Varroa, change versus batch I ([2]; overall dose 2 mg/hive): −47.4%; Degree of infestation with Varroa ([2]; overall dose 6 mg/hive): 38.4 % relative to batch I; Degree of infestation with Varroa, change versus batch I ([2]; overall dose 6 mg/hive): −62.6%; Protective effect against the infestation of bees by Varroa destructor ([1]; 1st test, 2 mg per colony, relative to untreated batch I, Li complex at a lithium concentration almost 4 times lower than Li—Ac): protective capacity comparable to that of the lithium acetate; Degree of infestation with Varroa [1]: 57.3 % relative to batch I; Degree of infestation with Varroa, change versus batch I [1]: −42.7%

Source: patent publication US12582721B2, “Molybdenum-based feed supplement for bees” (UNIVERSITE DE VERSAILLES—SAINT-QUENTIN-EN-YVELINES, priority 2020, dated 2026)
